Values after ≈ are worked out from the molar mass of the structure shown.
Columns and labels:
[1] = tested on: Pseudomonas maltophilia E04004; experiment: Antibacterial activity (MIC), Pseudomonas maltophilia E04004; assay type: cell-based; conditions: Stenotrophomonas maltophilia
[2] = tested on: Staphylococcus aureus E31106; experiment: Antibacterial activity (MIC), Staphylococcus aureus E31106; assay type: cell-based; conditions: Staphylococcus aureus E31106, lactamase producing bacteria
Escherichia coli NIHJ = experiment: Antibacterial activity (MIC), Escherichia coli NIHJ; assay type: cell-based
[3] = tested on: Serratia marcescens ES-75; experiment: Antibacterial activity (MIC), Serratia marcescens ES-75; assay type: cell-based; conditions: ES75
[4] = tested on: Staphylococcus aureus 209-P; experiment: Antibacterial activity (MIC), Staphylococcus aureus 209-P; assay type: cell-based
[5] = tested on: Pseudomonas aeruginosa EP-01; experiment: Antibacterial activity (MIC), Pseudomonas aeruginosa EP-01; assay type: cell-based; conditions: EP01
[6] = tested on: Citrobacter freundii EC-34; experiment: Antibacterial activity (MIC), Citrobacter freundii EC-34; assay type: cell-based; conditions: EC34; Citrobacter freundii EC-34, lactamase producing bacteria
[7] = Acute toxicity LD50 (mouse, intravenous injection); conditions: in vivo
[8] = mouse, intravenous injection; prior-art compound; cited from earlier work

`CO/N=C(\C(=O)N[C@@H]1C(=O)N2C(C(=O)[O-])=C(C[N+]34CCC(CO)(CC3)CC4)CS[C@H]12)c1nsc(N)n1` [Example 14, 7β-[(Z)-2-(5-Amino-1,2,4-thiadiazol-3-yl)-2-methoxyiminoacetamido]-3-[4-hydroxymethyl-1-quinuclidinio]methyl-3-cephem-4-carboxylate] showed an MIC [1] of 3.13 µg/mL (≈ 5.82 µM), an MIC [2] of 50 µg/mL (≈ 93 µM) and an MIC (Escherichia coli NIHJ) of 0.1 µg/mL (≈ 0.186 µM). It also gave an MIC [3] of 0.2 µg/mL (≈ 0.372 µM), an MIC [4] of 1.56 µg/mL (≈ 2.9 µM) and an MIC [5] of 0.8 µg/mL (≈ 1.49 µM). For the same compound, the MIC [6] was 0.1 µg/mL (≈ 0.186 µM).
With `CO/N=C(\C(=O)N[C@@H]1C(=O)N2C(C(=O)[O-])=C(C[N+]34CCC(C(N)=O)(CC3)CC4)CS[C@H]12)c1csc(N)n1` [Example 5, 7β-[(Z)-2-(2-Aminothiazol-4-yl)-2-methoxyiminoacetamido]-3-(4-carbamoyl-1-quinuclidinio)methyl-3-cephem-4-carboxylate] the MIC [1] was 12.5 µg/mL (≈ 22.7 µM), the MIC [2] was 100 µg/mL (≈ 182 µM) and the MIC (Escherichia coli NIHJ) was 0.05 µg/mL (≈ 0.091 µM). For the same compound, the MIC [3] was 0.05 µg/mL (≈ 0.091 µM), the MIC [4] was 1.56 µg/mL (≈ 2.84 µM) and the LD50 [7] was over 3000 mg/kg. For the same compound, the MIC [5] was 1.56 µg/mL (≈ 2.84 µM) and the MIC [6] was 0.1 µg/mL (≈ 0.182 µM).
In the case of `CO/N=C(\C(=O)N[C@@H]1C(=O)N2C(C(=O)[O-])=C(C[N+]34CCC(C(N)=O)(CC3)CC4)CS[C@H]12)c1nsc(N)n1` [Example 6, 7β-[(Z)-2-(5-Amino-1,2,4-thiadiazol-3-yl)-2-methoxyiminoacetamido]-3-(4-carbamoyl-1-quinuclidinio)methyl-3-cephem-4-carboxylate], the MIC [1] is reported as 3.13 µg/mL (≈ 5.68 µM), the MIC [2] is reported as 25 µg/mL (≈ 45.4 µM) and the MIC (Escherichia coli NIHJ) is reported as 0.1 µg/mL (≈ 0.182 µM). The MIC [3] was 0.2 µg/mL (≈ 0.363 µM), the MIC [4] was 3.13 µg/mL (≈ 5.68 µM) and the LD50 [7] was over 3000 mg/kg. For the same compound, the MIC [5] was 0.4 µg/mL (≈ 0.726 µM) and the MIC [6] was 0.1 µg/mL (≈ 0.182 µM).
`CO/N=C(\C(=O)N[C@@H]1C(=O)N2C(C(=O)[O-])=C(C[N+]34CCC(O)(CC3)C4)CS[C@H]12)c1csc(N)n1` [Example 1, 7β-[(Z)-2-(2-Aminothiazol-4-yl)-2-methoxyiminoacetamido]-3-(4-hydroxy-1,4-methylene-1-piperidinio)methyl-3-cephem-4-carboxylate] gave an MIC [1] of 25 µg/mL (≈ 49.2 µM), an MIC [2] of 100 µg/mL (≈ 197 µM) and an MIC (Escherichia coli NIHJ) of 0.05 µg/mL (≈ 0.0983 µM). For the same compound, the MIC [3] was 0.1 µg/mL (≈ 0.197 µM), the MIC [4] was 0.8 µg/mL (≈ 1.57 µM) and the LD50 [7] was over 3000 mg/kg. For the same compound, the MIC [5] was 1.56 µg/mL (≈ 3.07 µM) and the MIC [6] was 0.1 µg/mL (≈ 0.197 µM).
`CO/N=C(\C(=O)N[C@@H]1C(=O)N2C(C(=O)[O-])=C(C[N+]34CCC(O)(CC3)CC4)CS[C@H]12)c1csc(N)n1` [Example 3, 7β-[(Z)-2-(2-Aminothiazol-4-yl)-2-methoxyiminoacetamido]-3-(4-hydroxy-1-quinuclidinio)methyl-3-cephem-4-carboxylate] gave an MIC [1] of 6.25 µg/mL (≈ 12 µM), an MIC [2] of 100 µg/mL (≈ 191 µM) and an MIC (Escherichia coli NIHJ) of 0.05 µg/mL (≈ 0.0957 µM). It also gave an MIC [3] of 0.1 µg/mL (≈ 0.191 µM), an MIC [4] of 0.8 µg/mL (≈ 1.53 µM) and an LD50 [7] of over 3000 mg/kg. It also gave an MIC [5] of 1.56 µg/mL (≈ 2.99 µM) and an MIC [6] of 0.1 µg/mL (≈ 0.191 µM).
For `CO/N=C(\C(=O)N[C@@H]1C(=O)N2C(C(=O)[O-])=C(C[N+]34CCC(C)(CC3)CC4)CS[C@H]12)c1nsc(N)n1` [Example 15, 7β-[(Z)-2-(5-Amino-1,2,4-thiadiazol-3-yl)-2-methoxyiminoacetamido]-3-(4-methyl-1-quinuclidinio)methyl-3-cephem-4-carboxylate], the MIC [1] was 1.56 µg/mL (≈ 2.99 µM), the MIC [2] was 50 µg/mL (≈ 95.9 µM) and the MIC (Escherichia coli NIHJ) was 0.05 µg/mL (≈ 0.0959 µM). The MIC [3] was 0.2 µg/mL (≈ 0.383 µM), the MIC [4] was 0.8 µg/mL (≈ 1.53 µM) and the MIC [5] was 0.8 µg/mL (≈ 1.53 µM). The MIC [6] was 0.05 µg/mL (≈ 0.0959 µM).
`CO/N=C(\C(=O)N[C@@H]1C(=O)N2C(C(=O)[O-])=C(C[N+]34CCC(O)(CC3)C4)CS[C@H]12)c1nsc(N)n1` [Example 2, 7β-[(Z)-2-(5-Amino-1,2,4-thiadiazol-3-yl)-2-methoxyiminoacetamido]-3-(4-hydroxy-1,4-methylene-1-piperidinio)methyl-3-cephem-4-carboxylate] showed an MIC [1] of 12.5 µg/mL (≈ 24.5 µM), an MIC [2] of 50 µg/mL (≈ 98.1 µM) and an MIC (Escherichia coli NIHJ) of 0.1 µg/mL (≈ 0.196 µM). The MIC [3] was 0.2 µg/mL (≈ 0.392 µM), the MIC [4] was 0.8 µg/mL (≈ 1.57 µM) and the LD50 [7] was over 3000 mg/kg. The MIC [5] was 0.8 µg/mL (≈ 1.57 µM) and the MIC [6] was 0.1 µg/mL (≈ 0.196 µM).
For `CO/N=C(\C(=O)N[C@@H]1C(=O)N2C(C(=O)[O-])=C(C[N+]34CCC(CC3)CC4)CS[C@H]12)c1csc(N)n1` [7β-[(Z)-2-(2-aminothiazol-4-yl)-2-methoxyiminoacetamido]-3-(1-quinuclidinio)methyl-3-cephem-4-carboxylate], the “acute toxic value LD50” value [8] is listed as at most 100 mg/kg.
Work on `CO/N=C(\C(=O)N[C@@H]1C(=O)N2C(C(=O)[O-])=C(C[N+]34CCC(O)(CC3)CC4)CS[C@H]12)c1nsc(N)n1` [Example 4, 7β-[(Z)-2-(5-Amino-1,2,4-thiadiazol-3-yl)-2-methoxyiminoacetamido]-3-(4-hydroxy-1-quinuclidinio)methyl-3-cephem-4-carboxylate] yielded an MIC [1] of 6.25 µg/mL (≈ 11.9 µM), an MIC [2] of 25 µg/mL (≈ 47.7 µM) and an MIC (Escherichia coli NIHJ) of 0.1 µg/mL (≈ 0.191 µM). The MIC [3] was 0.2 µg/mL (≈ 0.382 µM), the MIC [4] was 1.56 µg/mL (≈ 2.98 µM) and the LD50 [7] was over 3000 mg/kg. For the same compound, the MIC [5] was 0.8 µg/mL (≈ 1.53 µM) and the MIC [6] was 0.1 µg/mL (≈ 0.191 µM).

— US5008260A, “Cephem derivatives” (Eisai Co., Ltd., priority 1985, dated 1991)
